Experimental data as given in PMC4079055 (The New England journal of medicine, 2014).
Like-named read-outs stand apart in the source and are kept apart here.

What was measured:
[1] = Phase 1 study of oral ceritinib: safety, dose-limiting toxic events, MTD; type: in vivo
clinical = details: human, in vivo
ALK-rearranged NSCLC = experiment: Phase 1 study: antitumor activity; type: in vivo, human
ALK = details: enzymatic assays; cited from earlier work
MET = details: cited from earlier work
[2] = system: ALK-rearranged NSCLC xenograft; details: crizotinib-sensitive and crizotinib-resistant tumors; cited from earlier work
[3] = cited from earlier work
[4] = at least 400 mg daily, 114 patients with NSCLC

Cc1cc(Nc2ncc(Cl)c(Nc3ccccc3S(=O)(=O)C(C)C)n2)c(OC(C)C)cc1C1CCNCC1 [Ceritinib]
Treatment-related deaths ([1]; all 130 patients): No treatment-related deaths occurred
Any event, grade 3 or 4, suspected to be related ([1]; human, in vivo): 64 (49) number of patients with event (percent)
Diarrhea, grade 3 or 4, suspected to be related ([1]; human, in vivo): 9 (7) number of patients with event (percent)
Dose-limiting toxic events ([1]; human, in vivo): diarrhea (at a daily dose of ≥600 mg), vomiting (at 750 mg daily), nausea (at 750 mg daily), dehydration (at 600 mg daily), elevated alanine aminotransferase level (at 400 mg daily), and hypophosphatemia (at 400 mg daily)
Elevated alanine aminotransferase level, grade 3 or 4, suspected to be related ([1]; human, in vivo): 27 (21) number of patients with event (percent)
Elevated amylase level, grade 3 or 4, suspected to be related ([1]; human, in vivo): 3 (2) number of patients with event (percent)
Elevated aspartate aminotransferase level, grade 3 or 4, suspected to be related ([1]; human, in vivo): 14 (11) number of patients with event (percent)
Elevated blood alkaline phosphatase level, grade 3 or 4, suspected to be related ([1]; human, in vivo): 3 (2) number of patients with event (percent)
Elevated lipase level, grade 3 or 4, suspected to be related ([1]; human, in vivo): 9 (7) number of patients with event (percent)
Fatigue, grade 3 or 4, suspected to be related ([1]; human, in vivo): 6 (5) number of patients with event (percent)
Hyperglycemia, grade 3 or 4, suspected to be related ([1]; human, in vivo): 3 (2) number of patients with event (percent)
Hypophosphatemia, grade 3 or 4, suspected to be related ([1]; human, in vivo): 4 (3) number of patients with event (percent)
Incidence of grade 3 or 4 nausea ([1]; human, in vivo): 5%
Median duration of treatment interruption ([1]; human, in vivo): 7.3 days
Nausea, grade 3 or 4, suspected to be related ([1]; human, in vivo): 7 (5) number of patients with event (percent)
Study drug permanently discontinued owing to an adverse event ([1]; human, in vivo): 6%
Vomiting, grade 3 or 4, suspected to be related ([1]; human, in vivo): 6 (5) number of patients with event (percent)
Cases of interstitial lung disease possibly related to therapy ([1]; in vivo): four
Dose-limiting toxic events ([1]; in vivo): diarrhea, vomiting, dehydration, elevated aminotransferase levels, and hypophosphatemia
Maximum tolerated dose (MTD) ([1]; oral, once daily, dose-escalation phase, 59 patients): 750 mg daily
Day by which steady-state levels were achieved (clinical): ~15 days
Increase in Cmax in relation to dose (clinical): slightly greater than proportional to the dose
half-life (clinical; 750 mg): ~40 h
Mean (±SD) area under the plasma concentration–time curve over a 24-hour period (clinical; po): 16,500±4750 ng per milliliter per hour
Mean Cmax (clinical; po): 800±205 ng per milliliter
Time at which Cmax was achieved after receipt of the dose (clinical; po, 750 mg): approximately 6 hours
Overall response rate (ALK-rearranged NSCLC; 750 mg daily, 78 patients with NSCLC, 95% CI 47 to 70): 59%
Tumor regression by molecular status (ALK-rearranged NSCLC; 19 crizotinib-resistant patients with repeat biopsy): Tumor regression was observed in all the patients
Median progression-free survival (ALK-rearranged NSCLC; 50 patients without central nervous system metastases, ≥400 mg daily): 7.0 months
Patients with confirmed partial response (ALK-rearranged NSCLC; 50 to 300 mg daily, 8 patients with NSCLC): 2 patients
Median progression-free survival (ALK-rearranged NSCLC; 64 patients with central nervous system metastases at baseline, ≥400 mg daily): 6.9 months
Median duration of response (ALK-rearranged NSCLC; 66 responders, at least 400 mg daily, 95% CI 6.9 to 11.4): 8.2 months
Patients with duration of response of 6 months or longer (ALK-rearranged NSCLC; 66 responders, at least 400 mg daily, 95% CI 50 to 74): 64%
Median progression-free survival (ALK-rearranged NSCLC; 80 patients who had previously received crizotinib, 400 to 750 mg daily, 95% CI 5.3 to 8.8): 6.9 months
Median progression-free survival (ALK-rearranged NSCLC; 114 patients with NSCLC, at least 400 mg daily, 95% CI 5.6 to 9.5): 7.0 months
Confirmed complete response (ALK-rearranged NSCLC; [4]): 1%
Confirmed partial response (ALK-rearranged NSCLC; [4]): 57%
Progressive disease on the first restaging scans (ALK-rearranged NSCLC; [4]): 11%
Stable disease (ALK-rearranged NSCLC; [4]): 22%
Overall response rate (ALK-rearranged NSCLC; at least 400 mg daily, 114 patients with NSCLC, 95% CI 48 to 67): 58%
Median overall survival (ALK-rearranged NSCLC; data immature, 72% censored): had not been reached
Overall response rate (ALK-rearranged NSCLC; no previous crizotinib, at least 400 mg daily, 34 patients, 95% CI 44 to 78): 62%
Patients with confirmed responses (ALK-rearranged NSCLC; of 7 crizotinib-resistant patients with ALK gene amplification or mutation): 6 patients
Patients with confirmed responses (ALK-rearranged NSCLC; of 12 crizotinib-resistant patients without ALK alteration): 7 patients
Reduction in tumor burden on computed tomographic scans (ALK-rearranged NSCLC; one patient with crizotinib-resistant disease, after 6 weeks of treatment): 52%
Responses in untreated central nervous system lesions (ALK-rearranged NSCLC; patients who had received crizotinib previously): responses were seen in untreated lesions in the central nervous system
Overall response rate (ALK-rearranged NSCLC; previously treated with crizotinib, 400 mg or more daily, 80 patients, 95% CI 45 to 67): 56%
Overall response rate (ALK-rearranged NSCLC; previously treated with crizotinib, 750 mg daily, 50 patients, 95% CI 41 to 70): 56%
Potency against ALK relative to crizotinib (ALK): 20 times
Inhibition of the kinase activity of MET (MET): does not inhibit
Antitumor activity in xenograft models [2]: marked antitumor activity

C[C@@H](Oc1cc(-c2cnn(C3CCNCC3)c2)cnc1N)c1c(Cl)ccc(F)c1Cl [crizotinib]
Incidence of grade 3 or 4 nausea [3]: 1%
Patients with drug-related diarrhea of grade 3 or 4 ([3]; of 321 patients): 0 patients
